Patent US12441706B2, “Protein degradation agent compound preparation method and application” (SHANGHAI JEMINCARE PHARMACEUTICALS CO., LTD., priority 2019, dated 2025)

Experiments:
LNcap FGC cells = assay: Inhibition of proliferation of LNcap FGC cells (Cell Titer Glo, 6 days); assay type: cell-based; details: Homo sapiens, LNCaP, 144 h
Procedure: Tumor cell line LNcap FGC (ATCC catalog number CRL-1740) was cultured in RPMI 1640 (Gibco catalog number 11875-093) and DMEM (Gibco catalog number. 11965-092) medium containing 10% FBS (Gibco catalog number 10099-141C), respectively.
(§1) LNcap FGC cells were inoculated in a 384-well plate (Perkin Elmer catalog number 6007460) at a cell density of 400 cells/well in a volume of 20 μL/well and incubated overnight in a carbon dioxide incubator (Thermo). The prepared compound solutions of different concentrations were added in a volume of 5 μL/well. The corresponding vehicle control was set at the same time. After being cultured in the incubator for 6 days, the cell plate and the contents were equilibrated to room temperature, and 25 μL of Cell Titer Glor (Promega catalog number G7573) was added to each well, shook and mixed well, incubated in dark for 10-30 minutes, and the signal values were detected with Envision microplate reader (PerkinElmer).
(§2) The percentage inhibition rate of compound-treated wells was calculated from the vehicle control wells on the plate, and the percentage inhibition rate data corresponding to different concentrations were fitted by GraphPad prism, and the IC50 values were calculated by 4-parameter nonlinear logic formula.

androgen receptor = target: T1, androgen receptor (Homo sapiens, UniProt P10275); assay: In-Cell-Western determination of androgen receptor degradation in VCaP cells; assay type: cell-based; details: 24 hours treatment
T1 construct: endogenous in cells; host or cells: VCaP cells
T1 sequence (P10275 1-920): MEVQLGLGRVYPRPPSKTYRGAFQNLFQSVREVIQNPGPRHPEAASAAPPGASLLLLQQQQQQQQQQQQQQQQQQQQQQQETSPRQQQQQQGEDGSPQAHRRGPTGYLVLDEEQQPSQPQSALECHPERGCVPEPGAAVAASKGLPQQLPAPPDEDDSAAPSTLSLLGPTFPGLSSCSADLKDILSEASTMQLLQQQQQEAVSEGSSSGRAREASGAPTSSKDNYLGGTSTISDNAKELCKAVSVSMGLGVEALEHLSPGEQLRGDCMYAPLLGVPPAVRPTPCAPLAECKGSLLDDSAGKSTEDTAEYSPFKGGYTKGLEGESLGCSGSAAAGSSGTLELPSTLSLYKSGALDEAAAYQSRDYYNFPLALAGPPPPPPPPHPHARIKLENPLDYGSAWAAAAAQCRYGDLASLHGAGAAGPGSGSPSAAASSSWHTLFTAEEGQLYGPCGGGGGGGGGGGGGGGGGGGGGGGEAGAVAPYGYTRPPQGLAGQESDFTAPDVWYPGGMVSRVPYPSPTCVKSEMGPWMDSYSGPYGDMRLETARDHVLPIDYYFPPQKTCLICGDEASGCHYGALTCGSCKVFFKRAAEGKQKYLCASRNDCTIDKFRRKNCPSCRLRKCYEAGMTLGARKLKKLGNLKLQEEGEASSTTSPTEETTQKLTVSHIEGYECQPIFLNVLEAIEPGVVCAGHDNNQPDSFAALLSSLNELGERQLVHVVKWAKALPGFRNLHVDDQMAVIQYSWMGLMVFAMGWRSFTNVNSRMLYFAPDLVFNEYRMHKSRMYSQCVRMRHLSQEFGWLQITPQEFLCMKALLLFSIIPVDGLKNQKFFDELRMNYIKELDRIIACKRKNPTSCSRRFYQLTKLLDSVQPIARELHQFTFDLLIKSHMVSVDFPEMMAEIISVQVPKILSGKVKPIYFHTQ
Procedure: The determination evaluated the properties of the compounds in Vcap cells. Intracellular androgen receptor was determined by In-Cell-Western according to the determination steps described below.
In poly-D-Lysin pretreated 96-well cell culture plate (Corning 3599), Vcap cells were divided into […] volume, and inoculated with 50,000 cells/well in Vcap cell assay medium [DMEM containing phenol red (Gibco catalog number: 11995065); fetal bovine serum FBS (Gibco catalog number: 10099141C)]. Cells were cultured for at least two days.
1. First treated cells with compound. Compounds were gradient diluted with DMSO and cell culture medium, so that DMSO contained in cell culture plates was diluted to 0.5% —polypropylene plates were used according to the following protocol:
(1)(i) 200× stock plate in DMSO was prepared; (ii) 10 mM stock solution was diluted 1:4 with DMSO (10 μL stock solution+40 μL DMSO)=2000 μM, then entered into row 2; (iii) 1:4 (10 μL protac+40 μL DMSO) gradient dilution was performed in row 2 to row 9, and row 1 was reserved for 2000 μM reference compound and row 10 for DMSO. (iv) A total of 8 concentrations (final concentrations on the 200×plate were 2000 μM, 400 μM, 80 μM, etc.). (i) 3×stock solution in medium was prepared; (ii) 3 μL of 200× stock solution was transferred to 197 μL of culture medium (using 12-channel pipette, from line 1 to line 10), i.e. 3× stock solution plate. (iii) The stock solution plate was mixed evenly. (3) (i) The culture medium of Vcap cells was replaced with fresh culture medium, 100 μL volume culture medium. (ii) The well-mixed 3×stock solution was transferred to the cell culture plate (using 12-channel pipette, and 50 μL of stock solution was transferred from line 1 to line 10). (iii) Cells were cultured for 24 hours.
2. The expression level of intracellular androgen receptor after compound treatment was […] and determined according to the following method.
(1)(i) Equal volume of 8% paraformaldehyde was added to the cell culture plate for cell fixation. The fixing solution in the cell plate was discarded and washed three times with PBS. (ii) Triton solution (1:1000 dilution of the stock solution) was prepared. The solution in the cell plate was discarded, and 200 μL of Triton diluent was added into each well. (iii) 2×blocking solution (1:4 dilution of 10×blocking stock solution) was prepared. The solution in the cell plate was discarded, and 100 μL of 2×blocking solution was added into each well. (iv) Primary antibody solution (Androgen receptor Rabbbit mAb, Cell Signaling Technology catalog number: 5153; 1:1000 dilution) was prepared. The solution in the cell plate was discarded, 100 μL volume of primary antibody diluent was added to each well, and incubated at 4° C. overnight. (v) The primary antibody solution was discarded and the cell plate was washed with 1×Wash buffer. (vi) Secondary antibody solution (GOAT Antirabbit IgG (H+L), HRP, Thermo catalog number: 31460; 1:5000 dilution) was prepared, and 100 μL volume of secondary antibody dilution was added to each well for incubation. (vii) The secondary antibody solution in the cell plate was discarded and the cell plate was washed with 1× Wash buffer. (viii) TMB chromogenic solution (BD catalog number: 550534) was prepared, and 100 μL chromogenic solution was added into each well. (ix) 50 μL volume of stop solution (BD catalog number: 550534) was added to each well. (x) The absorption values at OD 450 nm and 570 nm were read though EnVision. (2)(i) Normalized analysis was performed on the number of cells in each well. The solution in the cell plate was discarded, and washed with wash buffer for three times. (ii) Janus dilution (1:3 dilution) was prepared. (iii) 50 μL volume diluent was added to each well for incubation. (iv) The solution in the plate was discarded and washed with deionized water. […]

VCap cells = assay: Inhibition of proliferation of VCap cells (Cell Titer Glo, 6 days); assay type: cell-based; details: Homo sapiens, VCaP, 144 h
Procedure: Tumor cell line VCap FGC (ATCC catalog number CRL-2876) was cultured in DMEM (Gibco catalog number 11965-092) medium containing 10% FBS (Gibco catalog number 10099-141C), respectively. During the determination, Vcap cells were replaced with DMEM medium containing 5% FBS and 0.1 nM R1881 (Sigma catalog number R0908).
as §1, with “Vcap” for “LNcap”, “1200” for “400”, “shake” for “shook”, “mix” for “mixed”, “though” for “with”
as §2, with “from” for “from the”

[1] = In vivo pharmacokinetics in mice, intravenous injection and oral administration; set-up: species or system mouse; details: male CD1 mice
Procedure: In this experimental example, in vivo pharmacokinetics in mice were evaluated by intravenous injection and oral administration.
Experimental methods and conditions: Male CD1 mice, aged 6-8 weeks, all animals were free access to food and water, and were given a single dose of the compound to be tested at 1 mg/Kg by intravenous injection (solvent 5% DMSO/15% Solutol/80% Saline), at 5 min, 15 min, 30 min, 1 hr, 2 hr, 4 hr, 8 hr, 24 hr, 48 h after drug administration, or oral gavage administration of 10 mg/kg (solvent 5% DMSO/10% Solutol/85% Saline), at 15 min, 30 min, 1 hr, 2 hr, 4 hr, 6 h, 8 hr, 24 hr, 48 h after administration, blood was collected from the orbit, no less than 50 μL for each sample, heparin sodium was used for anticoagulation, and then placed on ice after collection, and centrifuged within 1 hour to separate the plasma for testing. The plasma concentration of the drug was detected by liquid tandem mass spectrometry (LC/MS/MS), and the pharmacokinetic parameters were calculated by Phoenix WinNonlin software.

[2] = system: human prostate cancer VCaP cell subcutaneous xenograft tumor; assay: In vivo pharmacodynamic study, human prostate cancer VCaP cell subcutaneous xenograft tumor CB17 SCID mouse model; details: castrated CB17 SCID mice, 24th day after administration
Procedure: Experimental animal: male mice of CB17 SCID strain, aged 6-8 weeks, weighing 18-22 grams, supplier: Beijing Weitong Lihua Laboratory Animal Technology Co., Ltd. Shanghai Branch, animal certificate number: 20170011005577. Animals were reared in the experimental environment for 7 days after arrival and the experiment was started.
Experimental method: Human prostate cancer cell VCaP cells (ATCC-CRL-2876) were cultured in vitro in monolayer, and the culture conditions were DMEM medium with 20% fetal bovine serum, 100 U/mL penicillin and 100 μg/mL streptomycin, cultured in a 5% CO2 incubator at 37° C. Conventional digestion with trypsin-EDTA was performed twice a week for passage. When the cell saturation was 80%-90% and the number reached the requirement, the cells were collected, counted, and inoculated. 0.2 mL (10× 10^6 cells+Matrigel) VCaP cells were subcutaneously inoculated into the left upper limb of each mouse, and castration was performed 33 days after cell inoculation. When the average tumor volume reached 119 mm^3, the drugs were administered in groups, and the doses of compound 14 were set to four groups: 1 mg/kg, 3 mg/kg, 10 mg/kg and 30 mg/kg.
Daily observation of experimental animals: the health status and death of animals were monitored every day. Routine examinations included observing the effects of tumor growth and drug treatment on the daily behavior of animals, such as behavioral activities, food and water intake (visual observation only), and weight changes (body weight measured three times a week), physical signs or other abnormal conditions.
Tumor measurements and experimental indicators: Experimental indicators were to examine whether tumor growth was inhibited, delayed or cured. Tumor diameters were measured with vernier calipers three times a week.
The calculation formula of tumor volume is: V=0.5a×b2, where a and b represented the long diameter and short diameter of the tumor, respectively. The antitumor effect of the compound was evaluated by TGI (%) or relative tumor proliferation rate T/C (%). TGI (%), reflecting the tumor growth inhibition rate. Calculation of TGI (%): TGI (%)=[1−(average tumor volume at the end of administration of a certain treatment group−average tumor volume at the beginning of administration of the treatment group)/(average tumor volume at the end of treatment in the vehicle control group−average tumor volume at the beginning of treatment in the vehicle control group)]×100%. Relative tumor proliferation rate T/C (%): the calculation formula is as follows: T/C %=TRTV/CRTV×100% (TRTV: RTV in the treatment group; CRTV: RTV in the negative control group). The relative tumor volume (RTV) was calculated according to the results of tumor measurement, and the formula is RTV=Vt/V0, where V0 is the average tumor volume measured at the time of group administration (i.e. d0), and Vt is the average tumor volume at a certain measurement, and TRTV and CRTV were taken on the same day. After the experiment, the tumor weight would be detected, and the percentage of T/Cweight would be calculated. Tweight and Cweight represent the tumor weight of the administration group and the vehicle control group, respectively.
Statistical analysis: Statistical analysis included the mean and standard error (SEM) of tumor volume at each time point for each group. […] T-test was used for comparison between two groups, and one-way ANOVA was used for comparison between three or more groups. […]

[3] = mouse, intravenous administration 1 mg/kg, plasma
[4] = mouse, oral administration 10 mg/kg, plasma

CC1(C)C(=O)N(c2ccc(C#N)c(Cl)c2)c2ccc(-c3ccc(N4CC(CN5CCN(c6ccc7c(c6)C(=O)N(C6CCC(=O)NC6=O)C7=O)CC5)C4)nc3)cc21 (stereo not drawn) [Compound 9] showed an Emax (LNcap FGC cells) of 100%, an IC50 (LNcap FGC cells) of 35.5 nM and a DC50 (androgen receptor; concentration for half of the maximal degradation of AR in VCaP cells) of 121 nM. For the same compound, the Dmax (androgen receptor; maximum degradation of AR in VCaP cells) was 56%, the Emax (VCap cells) was 97% and the IC50 (VCap cells) was 61 nM.
For CC1(C)[C@H](NC(=O)c2ccc(N3CCC(CN4CCN(c5ccc6c(c5)C(=O)N(C5CCC(=O)NC5=O)C6=O)CC4)CC3)cc2)C(C)(C)[C@H]1Oc1ccc(C#N)c(Cl)c1 (stereo partly drawn) [Reference substance 1, reference compound], the F ([1]; oral administration 10 mg/kg vs intravenous 1 mg/kg) was 99.0%, the AUC(0-inf) [1, 3] was 5360 ng·h/mL and the clearance [1, 3] was 3.11 mL/min/kg. It also gave a half-life [1, 3] of 13.4 h, an AUC(0-inf) [1, 4] of 53000 ng·h/mL and a Cmax [1, 4] of 1420 ng/mL. The half-life [1, 4] was 14.4 h and the “tumor growth inhibition rate (TGI)” value ([2]; dose 10 mpk) was 60%.
With CNC(=O)c1ccc(N2C(=S)N(c3ccc(C#N)c(C(F)(F)F)c3)C(=O)C2(C)C)cc1F [enzalutamide, reference compound] the “tumor growth inhibition rate (TGI)” value [2] was 45%.
